Measured values from patent US20230241056A1, “PHARMACEUTICAL COMPOSITION FOR TREATING MACULAR DEGENERATION INCLUDING IMIDAZOLINE DERIVATIVE COMPOUND AS ACTIVE INGREDIENT” (FUSION BIOTECHNOLOGY CO., LTD., priority 2021, published 2023).

Columns and labels:
[1] = system: Doxorubicin-treated senescent cells (SnCs) and non-senescent cells (ARPE-19); assay: Selective killing of senescent cells, propidium iodide staining; assay type: cell-based, human; settings: PI staining
Method: To determine whether Nutlin-3 selectively killed senescent cells, the cells were treated with Nutlin-3 as follows and stained with propidium iodide.
Doxorubicin-treated senescent cells (SnCs) grown in the 24-well plate of Example 1 and non-senescent cells (non-SnCs) were treated with Nutlin-3 at different concentrations. After 24 hours, the medium was removed, and a medium including propidium iodide (PI, BD Biosciences, 51-66211E, 1.5 ug/ml) and Hoechst 33342 (Invitrogen, H1399, 1 ug/ml) was added to each well. After 30 minutes, images were obtained using an ultra-high-resolution confocal laser scanning microscope (Carl Zeiss, LSM 800).

p53 = p53 overexpression induction, western blot; assay type: cell-based, human; settings: Nutlin-3 at different concentrations
Method: Doxorubicin-treated senescent cells (SnCs) grown in the 6-well plate of Example 1 and non-senescent cells (non-SnCs) were treated with different concentrations of Nutlin-3, and then, dissolved in RIPA buffer (Thermo Fisher Scientific, 89901) supplemented with protease inhibitor cocktail (Roche, 11697498001, Basel, Switzerland). The protein concentration of cells was quantified using BCA assay (Pierce, 23227, Waltham, USA). The same amount of protein was separated by SDS-PAGE in a 10-12% polyacrylamide gel and transferred to a polyvinylidene difluoride (PVDF) membrane. Then, the PVDF membrane was blocked with 5% skim milk powder in buffer for 1 hour, and anti-p53 (1: 500, Santa Cruz Biotechnology, SC-126) and anti-β-actin (1: 2000, Abcam, ab8226) antibodies were added thereto, incubated overnight at 4° C., and then incubated with horseradish peroxidase-conjugated anti-mouse IgG (1: 5000, Cell Signaling, 7076S) antibodies. The immunoreactive proteins were then visualized using a chemiluminescent substrate (Amersham, RDN2232, Little Chalfont, UK) and quantified with a densitometer using ImageJ software (NIH, USA). All experiments were repeated at least three times.

[2] = system: senescent cells of the retinal tissue; assay: Senescent cell killing in vivo, SA-β-gal staining of retinal tissue; settings: 20 ng/μl Nutlin-3 intravitreal, 2 injections, Dox or Alu RNA induced mice
From the text: Anterior eyeballs were dissected in cold PBS.

retinal tissue [3] = assay: Lesion mitigation in vivo, color fundus and fundus autofluorescence images; settings: 20 ng/μl Nutlin-3 intravitreal, senescence-induced mice
Method: (§1) After dilation of the eye with TRC-50 IX camera (Topcon, Tokyo, Japan) connected to a digital imaging system (Nikon, Japan) and HRA2 (Heidelberg Engineering, Heidelberg, Germany), the color fundus image and fundus autofluorescence image of the eye of the mice were each captured. […] In addition, in order to identify the cell tissue alignment state, ZO-1 expression was confirmed. Specifically, after blocking the retinal tissue with 1% BSA in PBS for 1 hour, fixed tissue or cells were incubated with primary antibody against ZO-1 (1:250, Invitrogen) overnight at 4° C. Stained tissues or cells were washed twice with PBS for 5 minutes and incubated with Alexa Fluor-conjugated secondary antibody for 2 hours at room temperature. As the secondary antibody, Alexa Fluor 555-conjugated goat anti-mouse IgG (Thermo Fisher Scientific, A-11029, Waltham, USA), Alexa Fluor 488-conjugated goat anti-mouse IgG (Thermo Fisher Scientific, A-21424), Alexa Fluor 555-conjugated goat anti-rabbit IgG (Thermo Fisher Scientific, A-21424), or Alexa Fluor 488-conjugated \u200b\u200b goat anti-rabbit IgG (Thermo Fisher Scientific, A-11034) was used. All secondary antibodies were used after being diluted at the ratio of 1:1000. […]

ZO-1 = assay: Cell tissue alignment state in vivo, ZO-1 expression; settings: 20 ng/μl Nutlin-3 intravitreal, senescence-induced mice
Method: as §1

retinal tissue [4] = assay: Drusen and Bruch's membrane thickness in vivo by TEM after Nutlin-3; set-up: species or system mice; settings: doxorubicin and Nutlin-3 group
Method: The eyeball of mice in a group injected with a vehicle alone as in Example 9, a group injected with doxorubicin and a vehicle, and a group injected with doxorubicin and Nutlin-3, were fixed with a solution including 2% glutaraldehyde and 3.75% sucrose in 0.1 M sodium phosphate buffer (pH 7.0) for 30 minutes, and washed three times with 0.1 M PBS including 3.75% sucrose for 30 minutes to prepare a sample for TEM. The eye was fixed with a solution including 0.1% osmium tetraoxide and 5% sucrose in 0.05 M sodium phosphate buffer (pH 7.0) for 1 hour and rinsed three times with distilled water. The sample was then dehydrated in a series of acetone solutions (step 20%), which are graded, and embedded in an epoxy resin. The resin was polymerized at 70° C. for 12 hours. Ultra-thin sections (100 nm) were obtained using RMC CR-X ultra microtomes and then images thereof were obtained using a JEOL JEM-1400 electron microscope. The thickness of the Bruch's membrane was measured using TEM. The average thickness of the Bruch's film was determined by measuring the thicknesses in the nine images of respective groups, and the results are shown in FIGS. 16 and 17.

retinal tissue [5] = assay: Lesion alleviation in vivo with combination, fundus autofluorescence image; settings: senescence-induced mice of Example 12
Method: Under an optical microscope (Olympus SZ51, Tokyo, Japan), a small hole was made in the limbus using a 30-gage sterile needle (BD Science, San Jose, USA). Then, a blunt 35-gage Hamilton microsyringe (Hamilton Company, NV, USA) was slowly inserted through the hole. After injecting 1 uL of 100 ng/μl Dox or 1.4 μg/μl Alu RNA into the subretinal space of C57BL/6N or C57BL/6J mice for 7 days, 20 ng/μl Nutlin-3 (#SML0580, St. Louis, USA) or vehicle (0.4% DMSO in normal saline) was administered to the retina on day 0 and day 3, and 50 mg/kg of Nutlin-3 and 100 mg/kg of nicotinamide were mixed at the ratio of 1:2 and the mixture was administered orally through the feeding needle catheter every day for 3 days.
After dilation of the eye with TRC-50 IX camera (Topcon, Tokyo, Japan) connected to a digital imaging system (Nikon, Japan) and HRA2 (Heidelberg Engineering, Heidelberg, Germany), the fundus autofluorescence image of the eye of the mice was captured.

ZO-1 or APOE = assay: ZO-1 and drusen marker APOE expression in vivo with combination; settings: senescence-induced mice of Example 12
Method: In addition, the expression of ZO-1 and the expression of the drusen marker APOE were confirmed to identify the cell tissue alignment state. Specifically, after blocking the retinal tissue with 1% BSA in PBS for 1 hour, fixed tissue or cells were incubated with primary antibody (1:50, Santa Cruz Biotechnology) against ZO-1 (1:250, Invitrogen) or APOE overnight at 4° C. Stained tissues or cells were washed twice with PBS for 5 minutes and incubated with Alexa Fluor-conjugated secondary antibody for 2 hours at room temperature. As the secondary antibody, Alexa Fluor 555-conjugated goat anti-mouse IgG (Thermo Fisher Scientific, A-11029, Waltham, USA), Alexa Fluor 488-conjugated goat anti-mouse IgG (Thermo Fisher Scientific, A-21424), Alexa Fluor 555-conjugated goat anti-rabbit IgG (Thermo Fisher Scientific, A-21424), or Alexa Fluor 488-conjugated \u200b\u200b goat anti-rabbit IgG (Thermo Fisher Scientific, A-11034) was used. All secondary antibodies were used after being diluted at the ratio of 1:1000. After incubation with the secondary antibody, tissues or cells were stained with nuclear dye DAPI (1:4000, Thermo Fisher Scientific, 62248) or Hoechst 33342 (1:3000, Thermo Fisher Scientific, H3570) in PBS for 15 minutes at room temperature. Thereafter, the tissues were then fixed in a fixing media (Ployscience, 18606-20, PA, USA).

ARPE-19 cells = assay: Induction of senescent cells by doxorubicin, SA-β-gal staining; assay type: cell-based, human; settings: 250 nM doxorubicin, 3 days
From the text: ARPE-19, a human retinal pigment epithelium (RPE) cell line, was induced into senescent cells using doxorubicin (Dox), which is used to form peroxide anions, induce DNA damage, and induce cell aging.
ARPE-19 cells were obtained from American Type Culture Collection (ATCC, CRL-2302, Va., U.S.A.), and cultured using a Dulbecco's modified Eagle's medium/nutrient mixture F-12 (WellGene, LM 002-04, Korea) supplemented with 10% fetal bovine serum (Invitrogen 16000, Waltham, U.S.A.) and penicillin-streptomycin (pen/strep, WellGene, LS 202-02) in a humidifying incubator having 5% CO2 at the temperature of 37° C. Cells were used after the cells were subcultured to 15-25 passages and reached the density population of about 70%-about 80%.
The cultured ARPE-19 cells were seeded in 24- or 6-well plates at a density of 25,000 or 100,000 cells per well prior to inducing cell aging with doxorubicin (Dox, Tocris Bioscience #2252, Bristol, UK). After 24 hours, 250 nM doxorubicin was added and the cells were incubated for another 3 days. After 3 days, the cells were placed in a doxorubicin-free medium and the medium was replaced daily. On day 10, senescent cells (SnCs) that were treated with doxorubicin and non-senescent cells (non-SnCs) that were not treated with doxorubicin but replaced with medium alone were seeded into 24- or 6-well plates for further experiments. […]

retinal tissue [6] = assay: Drusen and Bruch's membrane thickness by TEM after senescence induction with doxorubicin; assay type: in vivo, mice; settings: 100 ng/μl Dox subretinal
Method: Under an optical microscope (Olympus SZ51, Tokyo, Japan), a small hole was made in the limbus using a 30-gage sterile needle (BD Science, San Jose, USA). Then, a blunt 35-gage Hamilton microsyringe (Hamilton Company, NV, USA) was slowly inserted through the hole. 1 uL of 100 ng/μl Dox or 1.4 μg/μl Alu RNA was injected into the subretinal space of C57BL/6N or C57BL/6J mice for 7 days. In addition, the eye of mice was fixed with a solution including 2% glutaraldehyde and 3.75% sucrose in 0.1 M sodium phosphate buffer (pH 7.0), for 30 minutes, and washed three times with 0.1 M PBS including 3.75% sucrose for 30 minutes to prepare a sample for TEM. The eye was fixed with a solution including 0.1% osmium tetraoxide and 5% sucrose in 0.05 M sodium phosphate buffer (pH 7.0) for 1 hour and rinsed three times with distilled water. The sample was then dehydrated in a series of acetone solutions (step 20%), which were graded, and embedded in an epoxy resin. The resin was polymerized at 70° C. for 12 hours. Ultra-thin sections (100 nm) were obtained using RMC CR-X ultra microtomes and then images thereof were obtained using a JEOL JEM-1400 electron microscope. The thickness of the Bruch's membrane was measured using TEM.

Compound	senescent cells killed compared with non-senescent cells ([1]; 50 uM Nutlin-3, 24 hours) [times]	senescent cells killed compared with non-senescent cells ([1]; 75 uM Nutlin-3, 24 hours) [times]	expression of p53 in senescent cells (p53)	β-galactosidase expression compared to vehicle group [2]	waste in fundus images compared to vehicle group (retinal tissue [3])	cell tissue alignment (ZO-1) compared to vehicle group (ZO-1)	amount of drusen compared to vehicle-only senescent cells (retinal tissue [4])	thickness of the Bruch's membrane compared to vehicle-only senescent cells (retinal tissue [4])	waste in fundus autofluorescence image compared to vehicle group (retinal tissue [5])	cell tissue alignment state (ZO-1) compared to vehicle group (ZO-1 or APOE)	induction of ARPE-19 cells into senescent cells (SA-β-gal staining) (ARPE-19 cells)	amount of drusen after senescent cell induction (retinal tissue [6])	thickness of the Bruch's membrane after senescent cell induction (retinal tissue [6])
COc1ccc(C2=N[C@@H](c3ccc(Cl)cc3)[C@@H](c3ccc(Cl)cc3)N2C(=O)N2CCNC(=O)C2)c(OC(C)C)c1 [Nutlin-3]	7	3	further increased	low	significantly reduced	improved	reduced	reduced	significantly reduced	improved	–	–	–
COc1cccc2c1C(=O)c1c(O)c3c(c(O)c1C2=O)C[C@@](O)(C(=O)CO)C[C@@H]3O[C@H]1C[C@H](N)[C@H](O)[C@H](C)O1 [doxorubicin]	–	–	–	–	–	–	–	–	–	–	induced to senescent cells	increased	increased
